The text below walks through data of PubChem BioAssay AID180 (DTP/NCI, 2004).

The subject of the test is BDF1 mice, Adenocarcinoma 755 s.c., tumor weight T/C. The test is described as follows: NCI In Vivo Anticancer Drug Screen. Data for tumor model Adenocarcinoma 755 (subcutaneous) in B6D2F1 (BDF1) mice. The following applies: endpoint: mean tumor weight, higher = larger tumour. In a few lines:
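Transplantable tumor implanted; mice dosed with compound or vehicle; survival or tumor size recorded; ratio of treated to vehicle control reported.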

Setting [1] is: dose: 25.0 mg/kg/injection, schedule: Q01DX011 (ip), vehicle: other.
[2] abbreviates: dose: 50.0 mg/kg/injection, schedule: Q01DX011 (ip), vehicle: other.
[3] abbreviates: dose: 100.0 mg/kg/injection, schedule: Q01DX011 (ip), vehicle: other.
Where [4] appears, read: dose: 50.0 mg/kg/injection, schedule: Q01DX011 (ip), vehicle: methylcellulose (MC).
[5] abbreviates: dose: 100.0 mg/kg/injection, schedule: Q01DX011 (ip), vehicle: methylcellulose (MC).
The mark [6] stands for this setting: dose: 50.0 mg/kg/injection, schedule: Q01DX011 (ip), vehicle: carboxymethylcellulose (CMC).
Where [7] appears, read: dose: 100.0 mg/kg/injection, schedule: Q01DX011 (ip), vehicle: carboxymethylcellulose (CMC).
The mark [8] stands for this setting: dose: 200.0 mg/kg/injection, schedule: Q01DX011 (ip), vehicle: carboxymethylcellulose (CMC).

In the case of `Cn1c(=O)c2c(nc(CN3CCOCC3)n2C)n(C)c1=O`, the T/C runs as follows: (dose: 30.0 mg/kg/injection, schedule: Q01DX011 (ip), vehicle: methylcellulose (MC)) 122 % of control; (dose: 60.0 mg/kg/injection, schedule: Q01DX011 (ip), vehicle: methylcellulose (MC)) 81 % of control; (dose: 120.0 mg/kg/injection, schedule: Q01DX011 (ip), vehicle: methylcellulose (MC)) 80 % of control; (dose: 240.0 mg/kg/injection, schedule: Q01DX011 (ip), vehicle: methylcellulose (MC)) 92 % of control.

`O=P(N1CCCCC1)(N1CC1)N1CC1`: the T/C (dose: 1.8 mg/kg/injection, schedule: Q01DX011 (ip), vehicle: carboxymethylcellulose (CMC)) is 68 % of control; the T/C (dose: 1.8 mg/kg/injection, schedule: Q01DX011 (ip), vehicle: saline) is 44 % of control; the T/C (dose: 3.5 mg/kg/injection, schedule: Q01DX011 (ip), vehicle: carboxymethylcellulose (CMC)) is 92 % of control; the T/C (dose: 3.5 mg/kg/injection, schedule: Q01DX011 (ip), vehicle: saline) is 38 % of control; the T/C (dose: 7.0 mg/kg/injection, schedule: Q01DX011 (ip), vehicle: saline) was 15 % of control; the T/C (dose: 14.0 mg/kg/injection, schedule: Q01DX011 (ip), vehicle: carboxymethylcellulose (CMC)) was 45 % of control.

With `Nc1nc(SCc2ccc(Cl)cc2)c2ncn(C3OC(CO)C(O)C3O)c2n1` (configuration not stated), the T/C runs as follows: (dose: 37.5 mg/kg/injection, schedule: Q01DX011 (ip), vehicle: methylcellulose (MC)) 6 % of control; (dose: 75.0 mg/kg/injection, schedule: Q01DX011 (ip), vehicle: methylcellulose (MC)) 1 % of control.

With `CC(=O)NCCc1ccccc1`, the T/C runs as follows: (dose: 12.5 mg/kg/injection, schedule: Q01DX011 (ip), vehicle: other) 106 % of control; under setting [1], 71 % of control; under setting [2], 99 % of control; under setting [3], 87 % of control; (dose: 200.0 mg/kg/injection, schedule: Q01DX011 (ip), vehicle: other) 59 % of control; (dose: 400.0 mg/kg/injection, schedule: Q01DX011 (ip), vehicle: other) 49 % of control.

As to `CC1=C(O)c2ccccc2C(=O)C1=O`, the T/C is 106 % of control under setting [1], 84 % of control under setting [2] and 96 % of control under setting [3].

With `Nc1cccc2c(=O)[nH][nH]c(=O)c12`, the T/C is 71 % of control (dose: 62.5 mg/kg/injection, schedule: Q01DX011 (ip), vehicle: water); 82 % of control (dose: 125.0 mg/kg/injection, schedule: Q01DX011 (ip), vehicle: water); 59 % of control (dose: 250.0 mg/kg/injection, schedule: Q01DX011 (ip), vehicle: water).

With `COC1CC(O)C(COS(C)(=O)=O)O1` (configuration not stated), the T/C reads like this: (dose: 25.0 mg/kg/injection, schedule: Q01DX011 (ip), vehicle: saline) 100 % of control; (dose: 75.0 mg/kg/injection, schedule: Q01DX011 (ip), vehicle: saline) 114 % of control; (dose: 225.0 mg/kg/injection, schedule: Q01DX011 (ip), vehicle: saline) 113 % of control.

Consider `CSc1nc(Cl)cc2nc(Cl)cn12`, for which the T/C (dose: 30.0 mg/kg/injection, schedule: Q01DX011 (ip), vehicle: carboxymethylcellulose (CMC)) is 110 % of control and the T/C (dose: 60.0 mg/kg/injection, schedule: Q01DX011 (ip), vehicle: carboxymethylcellulose (CMC)) was 111 % of control.

In the case of `Nc1ncnc2c1ncn2CCO`, the T/C is 52 % of control (dose: 25.0 mg/kg/injection, schedule: Q01DX011 (ip), vehicle: methylcellulose (MC)); 76 % of control under setting [4]; 67 % of control under setting [5].

For `Nc1nc(NC2CCCCC2)cc(=O)[nH]1`, the T/C by setting is: under setting [4], 56 % of control; under setting [5], 55 % of control; (dose: 200.0 mg/kg/injection, schedule: Q01DX011 (ip), vehicle: methylcellulose (MC)) 51 % of control; (dose: 400.0 mg/kg/injection, schedule: Q01DX011 (ip), vehicle: methylcellulose (MC)) 33 % of control.

As for `C=CCc1c[nH]c(=O)[nH]c1=O`, the T/C was 99 % of control (dose: 67.5 mg/kg/injection, schedule: Q01DX011 (ip), vehicle: saline); 78 % of control (dose: 125.0 mg/kg/injection, schedule: Q01DX011 (ip), vehicle: saline); 72 % of control (dose: 250.0 mg/kg/injection, schedule: Q01DX011 (ip), vehicle: saline).

Regarding `O=S1(=O)OCc2ccccc21`, the T/C runs as follows: (dose: 27.5 mg/kg/injection, schedule: Q01DX011 (ip), vehicle: carboxymethylcellulose (CMC)) 113 % of control; (dose: 27.5 mg/kg/injection, schedule: Q01DX011 (ip), vehicle: methylcellulose (MC)) 118 % of control; (dose: 55.0 mg/kg/injection, schedule: Q01DX011 (ip), vehicle: carboxymethylcellulose (CMC)) 68 % of control; (dose: 55.0 mg/kg/injection, schedule: Q01DX011 (ip), vehicle: methylcellulose (MC)) 98 % of control; (dose: 110.0 mg/kg/injection, schedule: Q01DX011 (ip), vehicle: methylcellulose (MC)) 17 % of control.

Take `CNc1nc(SCc2ccc(Cl)cc2Cl)ncc1C`: the T/C is 84 % of control (dose: 15.0 mg/kg/injection, schedule: Q01DX011 (ip), vehicle: methylcellulose (MC)); 69 % of control (dose: 31.0 mg/kg/injection, schedule: Q01DX011 (ip), vehicle: methylcellulose (MC)); 67 % of control (dose: 62.0 mg/kg/injection, schedule: Q01DX011 (ip), vehicle: methylcellulose (MC)); 73 % of control (dose: 125.0 mg/kg/injection, schedule: Q01DX011 (ip), vehicle: methylcellulose (MC)); 61 % of control (dose: 250.0 mg/kg/injection, schedule: Q01DX011 (ip), vehicle: methylcellulose (MC)).

On to `CC[C@H](c1ccc(O)cc1)[C@@H](CC)c1ccc(O)cc1`, for which the T/C (dose: 55.0 mg/kg/injection, schedule: Q01DX011 (sc), vehicle: steriod suspending solution) is 44 % of control.

In the case of `Ic1ncnc2c1ncn2C1CCCO1` (configuration not stated), the T/C is 94 % of control under setting [6] and 84 % of control under setting [7].

In the case of `COc1ccc(C(=O)OCC2OC(n3cnc4c(=S)nc[nH]c43)C(OC(=O)c3ccc(OC)cc3)C2OC(=O)c2ccc(OC)cc2)cc1` (configuration not stated), the T/C reads like this: under setting [8], 28 % of control; (dose: 400.0 mg/kg/injection, schedule: Q01DX011 (ip), vehicle: carboxymethylcellulose (CMC)) 2 % of control; (dose: 800.0 mg/kg/injection, schedule: Q01DX011 (ip), vehicle: carboxymethylcellulose (CMC)) 7 % of control.

On to `CCOC(=O)n1cnc2ncnc(SC)c21`, for which the T/C is, setting by setting: (dose: 5.0 mg/kg/injection, schedule: Q01DX011 (ip), vehicle: carboxymethylcellulose (CMC)) 59 % of control; (dose: 10.0 mg/kg/injection, schedule: Q01DX011 (ip), vehicle: carboxymethylcellulose (CMC)) 80 % of control; (dose: 12.5 mg/kg/injection, schedule: Q01DX011 (ip), vehicle: carboxymethylcellulose (CMC)) 48 % of control; (dose: 25.0 mg/kg/injection, schedule: Q01DX011 (ip), vehicle: carboxymethylcellulose (CMC)) 15 % of control; under setting [6], 7 % of control; under setting [7], 5 % of control. The T/C under setting [8] was 5 % of control.
